Results on one compound are retold here after patent US20240408043A1, “COMPOSITIONS AND METHODS FOR USE IN INCREASING MOTIVATIONAL PERFORMANCE” (SOCIETE DES PRODUITS NESTLE S.A., priority 2021, published 2024).

“Also recorded” adds a separate entry of the source.

Test [1] deals with GSH in the nucleus accumbens. In words: GSH level in the nucleus accumbens after NAC in the drinking water. The format is in vivo, rat. The note with it: adult male rats, NAC 500 mg/L in the drinking water for 2 weeks, FIG. 1B.
Another test concerns Adult male Wistar rats. The test is described as follows: Progressive ratio test of motivated behaviour (operant conditioning, nose poke for saccharine pellets). The format is in vivo, rat. The conditions noted are these: NAC 500 mg/L in the drinking water for 2 weeks, two-hour session. The protocol:
Adult male outbred rats were trained for nose poke for saccharine food pellets for one week on an FR1 training schedule as described in the methods below. […] Following 2 weeks of treatment, rats were given an additional 2 training sessions, followed 24 h later by a progressive ratio session designed to test their motivated behaviour. During this progressive ratio session, rats have to increasingly work harder to earn the saccharine pellet, as described in the methods below. […] The breakpoint is defined as the last step in the session where the animals received a reward and is a direct correlate of their willingness to exert an effort. […] Animals: Adult male Wistar rats (Charles Rivers, Saint-German-Nuelle, France) weighing 250-275 gr at the beginning of the experiment were used for all experiments. Rats were individually housed in cages in housing colonies on a 12:12 h reversed light:dark cycle with lights on at 20:00, and lights-off at 8:00. Food and water were available adlibitum. Following a week of acclimatization to the animal facilities, rats were handled for 2 min per day for three days prior to the start of the experiments, in order to habituate to the experimenters. Operant conditioning: Ten days after introduction to the reversed day-night cycle, rats started training in a fixed ratio 1 reinforcement schedule (FR1). Operant chambers (Coulbourn Instruments, Holliston, MA, US), placed in sound attenuating cubicles, were equipped with a grid, underneath which a tray with standard bedding material was placed for collection of feces and urine after each training session. Each chamber had one food tray and two ports placed on either side of the tray. A cue light was placed in each port and the food tray, whereas a house light was placed above the food tray. […] Correct nosepokes (i.e. nosepokes in the active port and outside the timeout period, thus resulting in food delivery) were calculated to evaluate behavioural performance, as well as the number of acquired rewards and the last completed ratio (breakpoint).

As to `CC(=O)N[C@@H](CS)C(=O)O` [NAC, N-acetyl cysteine], the “GSH in the nucleus accumbens compared to vehicle treated rats” value in test [1] is recorded as “enhance GSH levels; also recorded: enhanced GSH”. In the test with Adult male Wistar rats (FIG. 1C), the “nose pokes for the reward (correct nosepokes) in progressive ratio session, compared to vehicle” value is “significantly more nose pokes”. For the same compound, the “number of rewards earned in progressive ratio session, compared to vehicle” value in the test with Adult male Wistar rats (FIG. 1D) is recorded as “greater number of rewards; also recorded: more overall rewards”. Further, the “breakpoint (last completed ratio) in progressive ratio session, compared to vehicle” value with Adult male Wistar rats (FIG. 1E) is “significantly higher breakpoint level”.
